According to patent US6355799B1, “Substituted benzene compounds, process for their preparation, and herbicidal and defoliant compositions containing them” (ISK Americas Incorporated, priority 1997, dated 2002):

How the values were obtained:
Assay type in all cases: in vivo
[1] = test system: upland rice (Oryza sp., var. Tebonnet, RICE); assay: Pre-emerge test, crop safety; settings: crop damage, pre-emerge, phytotoxicity rating 0-100 at 14 days after application
Method in brief: (§1)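 Herbicidal damage is scored 0 (none) to 100 (complete plant death) two weeks after a simulated field spray. Rates span 15–1000 g ai/ha, delivered in acetone at 187 l/ha. For post-emergence treatments, plants have 2–3 leaves and the spray carries 0.25% v/v non-ionic surfactant.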

[2] = test system: field corn (Zea mays L., var. Dekalb 535, CORN); assay: Pre-emerge test, crop safety; settings: crop damage, pre-emerge, phytotoxicity rating 0-100 at 14 days after application
Method in brief: as §1

[3] = test system: redroot pigweed (Amaranthus retroflexus, AMARE); assay: Pre-emerge test, greenhouse herbicide activity screening; settings: pre-emerge, phytotoxicity rating 0-100 at 14 days after application
Method in brief: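 Sandy loam pots; pre-emerge: sown 1 d pre-spray, surface-watered after, then bottom-watered. Post-emerge: sown 8–21 d before, 2–3 leaf stage, + 0.25% v/v NIS, bottom-watered. Acetone, 187 l/ha track spray, 15–1000 g ai/ha. 0–100 injury score, day 14.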

[4] = test system: large crabgrass (Digitaria sanguinalis, DIGSA); assay: as above; settings: pre-emerge, phytotoxicity rating 0-100 at 14 days after application
Method in brief: as §1

[5] = test system: lambsquarters (Chenopodium album, CHEAL); assay: as above; settings: pre-emerge, phytotoxicity rating 0-100 at 14 days after application
Method in brief: as §1

[6] = test system: ivyleaf morningglory (Ipomoea hederacea, IPOHE); assay: as above; settings: pre-emerge, phytotoxicity rating 0-100 at 14 days after application
Method in brief: as §1

[7] = test system: green foxtail (Setaria viridis, SETVI); assay: as above; settings: pre-emerge, phytotoxicity rating 0-100 at 14 days after application
Method in brief: as §1

[8] = test system: sicklepod (Cassia obtusifolia, CASOB); assay: as above; settings: pre-emerge, phytotoxicity rating 0-100 at 14 days after application
Method in brief: as §1

[9] = test system: barnyardgrass (Echinochloa crus-galli, ECHCG); assay: as above; settings: pre-emerge, phytotoxicity rating 0-100 at 14 days after application
Method in brief: as §1

[10] = test system: johnsongrass (Sorghum halepense, SORHA); assay: as above; settings: pre-emerge, phytotoxicity rating 0-100 at 14 days after application
Method in brief: as §1

[11] = test system: velvetleaf (Abutilon theophrasti, ABUTH); assay: as above; settings: pre-emerge, phytotoxicity rating 0-100 at 14 days after application
Method in brief: as §1

[12] = test system: upland rice (Oryza sp., var. Tebonnet, RICE); assay: Post-emerge test, crop safety; settings: post-emerge, crop damage rating 0-100 at 14 days after application
Method in brief: as §1

[13] = test system: field corn (Zea mays L., var. Dekalb 535, CORN); assay: Post-emerge test, crop safety; settings: post-emerge, crop damage rating 0-100 at 14 days after application
Method in brief: as §1

[14] = test system: large crabgrass (Digitaria sanguinalis, DIGSA); assay: Post-emerge test, greenhouse herbicide activity screening; settings: post-emerge, phytotoxicity rating 0-100 at 14 days after application
Method in brief: (§2)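 Visual ratings on a 0-100 scale (0 no damage, 100 all plants dead) were taken at 14 days after treatment. Rates of 15-1000 g ai/ha in acetone, 187 l/ha, were sprayed onto soil one day after planting (pre-emerge) or onto 2-3 leaf plants with 0.25% v/v surfactant (post-emerge).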

[15] = test system: lambsquarters (Chenopodium album, CHEAL); assay: as above; settings: post-emerge, phytotoxicity rating 0-100 at 14 days after application
Method in brief: as §2

[16] = test system: ivyleaf morningglory (Ipomoea hederacea, IPOHE); assay: as above; settings: post-emerge, phytotoxicity rating 0-100 at 14 days after application
Method in brief: as §2

[17] = test system: green foxtail (Setaria viridis, SETVI); assay: as above; settings: post-emerge, phytotoxicity rating 0-100 at 14 days after application
Method in brief: as §2

[18] = test system: sicklepod (Cassia obtusifolia, CASOB); assay: as above; settings: post-emerge, phytotoxicity rating 0-100 at 14 days after application
Method in brief: as §2

[19] = test system: barnyardgrass (Echinochloa crus-galli, ECHCG); assay: as above; settings: post-emerge, phytotoxicity rating 0-100 at 14 days after application
Method in brief: as §2

[20] = test system: redroot pigweed (Amaranthus retroflexus, AMARE); assay: as above; settings: post-emerge, phytotoxicity rating 0-100 at 14 days after application
Method in brief: as §2

[21] = test system: johnsongrass (Sorghum halepense, SORHA); assay: as above; settings: post-emerge, phytotoxicity rating 0-100 at 14 days after application
Method in brief: as §2

[22] = test system: velvetleaf (Abutilon theophrasti, ABUTH); assay: as above; settings: post-emerge, phytotoxicity rating 0-100 at 14 days after application
Method in brief: as §2

## CC(C)Oc1c(Cl)cc(F)c(N2C(=O)C3=C(CCCC3)C2=O)c1NC(=O)c1ccc(F)cc1F [8-18]
[1]; rate 63 g ai/ha
  Pre-emerge Herbicidal Activity RICE: 10
[1]; rate 250 g ai/ha
  Pre-emerge Herbicidal Activity RICE: 30
[2]; rate 63 g ai/ha
  Pre-emerge Herbicidal Activity CORN: 0
[2]; rate 250 g ai/ha
  Pre-emerge Herbicidal Activity CORN: 10
[3]; rate 63 g ai/ha
  Pre-emerge Herbicidal Activity AMARE: 60
[3]; rate 250 g ai/ha
  Pre-emerge Herbicidal Activity AMARE: 100
[4]; rate 63 g ai/ha
  Pre-emerge Herbicidal Activity DIGSA: 10
[4]; rate 250 g ai/ha
  Pre-emerge Herbicidal Activity DIGSA: 80
[5]; rate 63 g ai/ha
  Pre-emerge Herbicidal Activity CHEAL: 70
[5]; rate 250 g ai/ha
  Pre-emerge Herbicidal Activity CHEAL: 100
[6]; rate 63 g ai/ha
  Pre-emerge Herbicidal Activity IPOHE: 0
[6]; rate 250 g ai/ha
  Pre-emerge Herbicidal Activity IPOHE: 30
[7]; rate 63 g ai/ha
  Pre-emerge Herbicidal Activity SETVI: 50
[7]; rate 250 g ai/ha
  Pre-emerge Herbicidal Activity SETVI: 100
[8]; rate 63 g ai/ha
  Pre-emerge Herbicidal Activity CASOB: 0
[8]; rate 250 g ai/ha
  Pre-emerge Herbicidal Activity CASOB: 60
[9]; rate 63 g ai/ha
  Pre-emerge Herbicidal Activity ECHCG: 10
[9]; rate 250 g ai/ha
  Pre-emerge Herbicidal Activity ECHCG: 90
[10]; rate 63 g ai/ha
  Pre-emerge Herbicidal Activity SORHA: 0
[10]; rate 250 g ai/ha
  Pre-emerge Herbicidal Activity SORHA: 50
[11]; rate 63 g ai/ha
  Pre-emerge Herbicidal Activity ABUTH: 90
[11]; rate 250 g ai/ha
  Pre-emerge Herbicidal Activity ABUTH: 100
[12]; 63 g ai/ha
  Post-emerge Herbicidal Activity RICE: 50
[12]; 250 g ai/ha
  Post-emerge Herbicidal Activity RICE: 60
[13]; 63 g ai/ha
  Post-emerge Herbicidal Activity CORN: 5
[13]; 250 g ai/ha
  Post-emerge Herbicidal Activity CORN: 30
[14]; 63 g ai/ha
  Post-emerge Herbicidal Activity DIGSA: 10
[14]; 250 g ai/ha
  Post-emerge Herbicidal Activity DIGSA: 20
[15]; 63 g ai/ha
  Post-emerge Herbicidal Activity CHEAL: 70
[15]; 250 g ai/ha
  Post-emerge Herbicidal Activity CHEAL: 80
[16]; 63 g ai/ha
  Post-emerge Herbicidal Activity IPOHE: 50
[16]; 250 g ai/ha
  Post-emerge Herbicidal Activity IPOHE: 60
[17]; 63 g ai/ha
  Post-emerge Herbicidal Activity SETVI: 30
[17]; 250 g ai/ha
  Post-emerge Herbicidal Activity SETVI: 30
[18]; 63 g ai/ha
  Post-emerge Herbicidal Activity CASOB: 30
[18]; 250 g ai/ha
  Post-emerge Herbicidal Activity CASOB: 40
[19]; 63 g ai/ha
  Post-emerge Herbicidal Activity ECHCG: 10
[19]; 250 g ai/ha
  Post-emerge Herbicidal Activity ECHCG: 30
[20]; 63 g ai/ha
  Post-emerge Herbicidal Activity AMARE: 100
[20]; 250 g ai/ha
  Post-emerge Herbicidal Activity AMARE: 100
[21]; 63 g ai/ha
  Post-emerge Herbicidal Activity SORHA: 10
[21]; 250 g ai/ha
  Post-emerge Herbicidal Activity SORHA: 30
[22]; 63 g ai/ha
  Post-emerge Herbicidal Activity ABUTH: 100
[22]; 250 g ai/ha
  Post-emerge Herbicidal Activity ABUTH: 100

## C=Cc1ccc(C(=O)Nc2c(OC)c(Cl)cc(F)c2N2C(=O)C3=C(CCCC3)C2=O)cc1 [8-30]
[1]; rate 63 g ai/ha
  Pre-emerge Herbicidal Activity RICE: 5
[1]; rate 250 g ai/ha
  Pre-emerge Herbicidal Activity RICE: 10
[2]; rate 63 g ai/ha
  Pre-emerge Herbicidal Activity CORN: 0
[2]; rate 250 g ai/ha
  Pre-emerge Herbicidal Activity CORN: 5
[3]; rate 63 g ai/ha
  Pre-emerge Herbicidal Activity AMARE: 100
[3]; rate 250 g ai/ha
  Pre-emerge Herbicidal Activity AMARE: 100
[4]; rate 63 g ai/ha
  Pre-emerge Herbicidal Activity DIGSA: 30
[4]; rate 250 g ai/ha
  Pre-emerge Herbicidal Activity DIGSA: 50
[5]; rate 63 g ai/ha
  Pre-emerge Herbicidal Activity CHEAL: 100
[5]; rate 250 g ai/ha
  Pre-emerge Herbicidal Activity CHEAL: 100
[6]; rate 63 g ai/ha
  Pre-emerge Herbicidal Activity IPOHE: 20
[6]; rate 250 g ai/ha
  Pre-emerge Herbicidal Activity IPOHE: 10
[7]; rate 63 g ai/ha
  Pre-emerge Herbicidal Activity SETVI: 20
[7]; rate 250 g ai/ha
  Pre-emerge Herbicidal Activity SETVI: 70
[8]; rate 63 g ai/ha
  Pre-emerge Herbicidal Activity CASOB: 20
[8]; rate 250 g ai/ha
  Pre-emerge Herbicidal Activity CASOB: 20
[9]; rate 63 g ai/ha
  Pre-emerge Herbicidal Activity ECHCG: 0
[9]; rate 250 g ai/ha
  Pre-emerge Herbicidal Activity ECHCG: 20
[10]; rate 63 g ai/ha
  Pre-emerge Herbicidal Activity SORHA: 0
[10]; rate 250 g ai/ha
  Pre-emerge Herbicidal Activity SORHA: 30
[11]; rate 63 g ai/ha
  Pre-emerge Herbicidal Activity ABUTH: 70
[11]; rate 250 g ai/ha
  Pre-emerge Herbicidal Activity ABUTH: 90
[12]; 63 g ai/ha
  Post-emerge Herbicidal Activity RICE: 40
[12]; 250 g ai/ha
  Post-emerge Herbicidal Activity RICE: 35
[13]; 63 g ai/ha
  Post-emerge Herbicidal Activity CORN: 10
[13]; 250 g ai/ha
  Post-emerge Herbicidal Activity CORN: 15
[14]; 63 g ai/ha
  Post-emerge Herbicidal Activity DIGSA: 20
[14]; 250 g ai/ha
  Post-emerge Herbicidal Activity DIGSA: 40
[15]; 63 g ai/ha
  Post-emerge Herbicidal Activity CHEAL: 100
[15]; 250 g ai/ha
  Post-emerge Herbicidal Activity CHEAL: 100
[16]; 63 g ai/ha
  Post-emerge Herbicidal Activity IPOHE: 100
[16]; 250 g ai/ha
  Post-emerge Herbicidal Activity IPOHE: 100
[17]; 63 g ai/ha
  Post-emerge Herbicidal Activity SETVI: 40
[17]; 250 g ai/ha
  Post-emerge Herbicidal Activity SETVI: 70
[18]; 63 g ai/ha
  Post-emerge Herbicidal Activity CASOB: 80
[18]; 250 g ai/ha
  Post-emerge Herbicidal Activity CASOB: 100
[19]; 63 g ai/ha
  Post-emerge Herbicidal Activity ECHCG: 30
[19]; 250 g ai/ha
  Post-emerge Herbicidal Activity ECHCG: 70
[20]; 63 g ai/ha
  Post-emerge Herbicidal Activity AMARE: 100
[20]; 250 g ai/ha
  Post-emerge Herbicidal Activity AMARE: 100
[21]; 63 g ai/ha
  Post-emerge Herbicidal Activity SORHA: 30
[21]; 250 g ai/ha
  Post-emerge Herbicidal Activity SORHA: 50
[22]; 63 g ai/ha
  Post-emerge Herbicidal Activity ABUTH: 100
[22]; 250 g ai/ha
  Post-emerge Herbicidal Activity ABUTH: 100
